# Laboratory results from patent publication US7705148B2, “Processes for the preparation of 4-[[4-[[4-(2-cyanoethenyl)-2,6-dimethylphenyl]amino]-2-pyrimidinyl]amino]benzonitrile” (priority 2008, dated 2010).
# Columns and labels:
# [1] = tested on: HIV; experiment: Determination of anti-HIV activity: inhibition of HIV-induced cytopathic effect in MT-4 cells (MTT); type: cell-based, Human Immunodeficiency Virus
# Description: (§1) A rapid, sensitive and automated assay procedure was used for the in vitro evaluation of anti-HIV agents. An […] T4-cell line, MT-4, which was previously shown (Koyanagi et al., Int. J. Cancer, 36, 445-451, 1985) to be highly susceptible to and permissive for HIV infection, served as the target cell line. Inhibition of the HIV-induced cytopathic effect was used as the end point. The viability of both HIV- and mock-infected cells was assessed spectrophotometrically via the in situ reduction of 3-(4,5-dimethylthiazol-2-yl)-2,5-diphenyltetrazolium bromide (MTT). The 50% cytotoxic concentration (CC50 in M) was defined as the concentration of compound that reduced the absorbance of the mock-infected control sample by 50%. The percent protection achieved by the compound in HIV-infected cells was calculated by the following formula:
# (§2) [formula] whereby (ODT)HIV is the optical density measured with a given concentration of the test compound in HIV-infected cells; (ODC)HIV is the optical density measured for the control untreated HIV-infected cells; (ODC)MOCK is the optical density measured for the control untreated mock-infected cells; all optical density values were determined at 540 nm. The dose achieving 50% protection according to the above formula was defined as the 50% inhibitory concentration (IC50 in M). The ratio of CC50 to IC50 was defined as the selectivity index (SI).
# [2] = tested on: resistant mutants of HIV-1 (single and double mutants); experiment: Replication inhibiting activity towards resistant mutants of HIV-1; type: cell-based; conditions: single and double mutants of HIV-1
# Description: Compound X was also tested for its replication inhibiting activity towards resistant mutants of HIV-1 (single and double mutants).
# [3] = Cytotoxicity in mock-infected MT-4 cells (MTT); type: cell-based; conditions: human, OD 540 nm, read-out: CC50 (50% cytotoxic concentration)
# Description: as §1, §2
structure (smiles),measurement,setting,value
"Cc1cc(/C=C/C#N)cc(C)c1Nc1ccnc(Nc2ccc(C#N)cc2)n1 [Compound X, 4-[[4-[[4-(2-cyanoethenyl)-2,6-dimethylphenyl]amino]-2-pyrimidinyl]amino]benzonitrile (E)]","SI (selectivity index, ratio of CC50 to IC50)",[1],"25,119"
same,replication inhibiting activity against resistant strains,[2],high activity
same,CC50,[3],10 µM
